# Laboratory results as given in the supplement of paper PMC10307832.
# Columns and labels:
# Test in all cases: relative viability (nuclei count vs DMSO), 5 days (fraction); higher = more cells survive
# NCI-H1299 = tested on: NCI-H1299
# Outline: (§1)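 Lung cancer cell lines in 1536-well plates got either a single drug or a fixed anchor-drug dose together with five library-drug doses (not always all listed) in √10 steps, by pin tool, on the day after seeding. Nuclei were counted after 5 days, and relative viability is the treated-to-vehicle ratio of nuclei counts. Values are medians of duplicate plates.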
# IA-LM = tested on: IA-LM
# Outline: as §1
# NCI-H1563 = tested on: NCI-H1563
# Outline: as §1
# EBC-1 = tested on: EBC-1
# Outline: as §1
# NCI-H1703 = tested on: NCI-H1703
# Outline: as §1
# A549 = tested on: A549
# Outline: as §1
# Calu-6 = tested on: Calu-6
# Outline: as §1
smiles,measurement,setting,value
O=C(O)CCCCC(CCSCc1ccccc1)SCc1ccccc1 (stereo not given) [CPI-613] + Cc1nc(NC(=O)N2CCC[C@H]2C(N)=O)sc1-c1ccnc(C(C)(C)C(F)(F)F)c1 [Alpelisib] (partner 2 µM),relative viability,NCI-H1299; first compound 5 µM,1.02
same,relative viability,NCI-H1299; first compound 15.81 µM,1.04
same,relative viability,NCI-H1299; first compound 50 µM,1.04
same,relative viability,NCI-H1299; first compound 158.11 µM,1.09
same,relative viability,NCI-H1299; first compound 500 µM,1.08
same,relative viability,IA-LM; first compound 5 µM,0.614
same,relative viability,IA-LM; first compound 15.81 µM,0.679
same,relative viability,IA-LM; first compound 50 µM,0.644
same,relative viability,IA-LM; first compound 158.11 µM,0.399
same,relative viability,IA-LM; first compound 500 µM,0.0122
same,relative viability,NCI-H1563; first compound 5 µM,0.958
same,relative viability,NCI-H1563; first compound 15.81 µM,0.938
same,relative viability,NCI-H1563; first compound 50 µM,0.939
same,relative viability,NCI-H1563; first compound 158.11 µM,0.796
same,relative viability,NCI-H1563; first compound 500 µM,0.113
same,relative viability,EBC-1; first compound 5 µM,0.823
same,relative viability,EBC-1; first compound 15.81 µM,0.651
same,relative viability,EBC-1; first compound 50 µM,0.678
same,relative viability,EBC-1; first compound 158.11 µM,0.199
same,relative viability,EBC-1; first compound 500 µM,0.0384
same,relative viability,NCI-H1703; first compound 5 µM,0.381
same,relative viability,NCI-H1703; first compound 15.81 µM,0.484
same,relative viability,NCI-H1703; first compound 50 µM,0.275
same,relative viability,NCI-H1703; first compound 158.11 µM,0.208
same,relative viability,NCI-H1703; first compound 500 µM,0.0611
same,relative viability,A549; first compound 5 µM,0.859
same,relative viability,A549; first compound 15.81 µM,0.675
same,relative viability,A549; first compound 50 µM,0.69
same,relative viability,A549; first compound 158.11 µM,0.384
same,relative viability,A549; first compound 500 µM,0.0243
same,relative viability,Calu-6; first compound 5 µM,0.997
same,relative viability,Calu-6; first compound 15.81 µM,0.876
same,relative viability,Calu-6; first compound 50 µM,0.891
same,relative viability,Calu-6; first compound 158.11 µM,0.174
same,relative viability,Calu-6; first compound 500 µM,0.0521
O=C(O)CCCCC(CCSCc1ccccc1)SCc1ccccc1 (stereo not given) [CPI-613] + C[C@@H](Oc1cc(-c2cnn(C3CCNCC3)c2)cnc1N)c1c(Cl)ccc(F)c1Cl [Crizotinib] (partner 1 µM),relative viability,NCI-H1299; first compound 5 µM,0.926
same,relative viability,NCI-H1299; first compound 15.81 µM,0.942
same,relative viability,NCI-H1299; first compound 50 µM,0.944
same,relative viability,NCI-H1299; first compound 158.11 µM,0.889
same,relative viability,NCI-H1299; first compound 500 µM,0.861
same,relative viability,IA-LM; first compound 5 µM,0.584
same,relative viability,IA-LM; first compound 15.81 µM,0.549
same,relative viability,IA-LM; first compound 50 µM,0.621
same,relative viability,IA-LM; first compound 158.11 µM,0.454
same,relative viability,IA-LM; first compound 500 µM,0.22
same,relative viability,NCI-H1563; first compound 5 µM,0.834
same,relative viability,NCI-H1563; first compound 15.81 µM,0.877
same,relative viability,NCI-H1563; first compound 50 µM,0.857
same,relative viability,NCI-H1563; first compound 158.11 µM,0.477
same,relative viability,NCI-H1563; first compound 500 µM,0.211
same,relative viability,EBC-1; first compound 5 µM,0.179
same,relative viability,EBC-1; first compound 15.81 µM,0.198
same,relative viability,EBC-1; first compound 50 µM,0.197
same,relative viability,EBC-1; first compound 158.11 µM,0.133
same,relative viability,EBC-1; first compound 500 µM,0.167
same,relative viability,NCI-H1703; first compound 5 µM,0.582
same,relative viability,NCI-H1703; first compound 15.81 µM,0.487
same,relative viability,NCI-H1703; first compound 50 µM,0.531
same,relative viability,NCI-H1703; first compound 158.11 µM,0.31
same,relative viability,NCI-H1703; first compound 500 µM,0.284
same,relative viability,A549; first compound 5 µM,0.738
same,relative viability,A549; first compound 15.81 µM,0.595
same,relative viability,A549; first compound 50 µM,0.526
same,relative viability,A549; first compound 158.11 µM,0.191
same,relative viability,A549; first compound 500 µM,0.145
same,relative viability,Calu-6; first compound 5 µM,0.802
same,relative viability,Calu-6; first compound 15.81 µM,0.622
same,relative viability,Calu-6; first compound 50 µM,0.741
same,relative viability,Calu-6; first compound 158.11 µM,0.556
same,relative viability,Calu-6; first compound 500 µM,0.346
O=c1[nH]c2ccccc2n1C1CCN(CCCC(c2ccc(F)cc2)c2ccc(F)cc2)CC1 [Pimozide] + CS(=O)(=O)CCNCc1ccc(-c2ccc3ncnc(Nc4ccc(OCc5cccc(F)c5)c(Cl)c4)c3c2)o1 [Lapatinib] (partner 2 µM),relative viability,NCI-H1299; first compound 0.08 µM,0.977
same,relative viability,NCI-H1299; first compound 0.253 µM,0.972
same,relative viability,NCI-H1299; first compound 0.8 µM,0.91
same,relative viability,NCI-H1299; first compound 2.53 µM,0.937
same,relative viability,NCI-H1299; first compound 8 µM,0.875
same,relative viability,IA-LM; first compound 0.08 µM,0.888
same,relative viability,IA-LM; first compound 0.253 µM,0.987
same,relative viability,IA-LM; first compound 0.8 µM,0.64
same,relative viability,IA-LM; first compound 2.53 µM,0.761
same,relative viability,IA-LM; first compound 8 µM,0.893
same,relative viability,NCI-H1563; first compound 0.08 µM,0.955
same,relative viability,NCI-H1563; first compound 0.253 µM,0.829
same,relative viability,NCI-H1563; first compound 0.8 µM,0.933
same,relative viability,NCI-H1563; first compound 2.53 µM,0.756
same,relative viability,NCI-H1563; first compound 8 µM,0.533
same,relative viability,EBC-1; first compound 0.08 µM,0.208
same,relative viability,EBC-1; first compound 0.253 µM,0.213
same,relative viability,EBC-1; first compound 0.8 µM,0.192
same,relative viability,EBC-1; first compound 2.53 µM,0.223
same,relative viability,EBC-1; first compound 8 µM,0.162
same,relative viability,NCI-H1703; first compound 0.08 µM,1.02
same,relative viability,NCI-H1703; first compound 0.253 µM,0.944
same,relative viability,NCI-H1703; first compound 0.8 µM,0.763
same,relative viability,NCI-H1703; first compound 2.53 µM,0.958
same,relative viability,NCI-H1703; first compound 8 µM,0.865
same,relative viability,A549; first compound 0.08 µM,0.912
same,relative viability,A549; first compound 0.253 µM,1.01
same,relative viability,A549; first compound 0.8 µM,0.976
same,relative viability,A549; first compound 2.53 µM,0.882
same,relative viability,A549; first compound 8 µM,0.802
same,relative viability,Calu-6; first compound 0.08 µM,1.08
same,relative viability,Calu-6; first compound 0.253 µM,1.07
same,relative viability,Calu-6; first compound 0.8 µM,1.02
same,relative viability,Calu-6; first compound 2.53 µM,1.02
same,relative viability,Calu-6; first compound 8 µM,0.933
